Data from US7053188B2, “Monoclonal antibodies specific for neoplasia-specific NADH:disulfide reductase” (Purdue Research Foundation, priority 2002, dated 2006).

Tests used:
[1] = tested on: tTIP; test: Direct assay of tTIP activity of HeLa plasma membranes with DTNA substrate; format: biochemical, human; details: no antibody
[2] = tested on: NADH oxidase of HeLa plasma membranes; details: background statement; cited from earlier work
[3] = tested on: tNOX; test: NADH oxidase (NOX) activity of pooled sera of cancer patients; format: biochemical, human; details: no MAB
Procedure: (§1) Pooled sera. Pooled sera were collected from the patient population of the Michiana Hematology-Oncology Clinic, South Bend, Ind. and from the patient population of St. Elizabeth Hospital of Lafayette, Ind. Only cancer patients with active disease (Stage III or Stage IV) were identified at the time of collections. Sera were frozen after collection and stored frozen at −20° C. Prior to assay, samples were thawed and maintained at 4° C. between thawing and assay.
Spectrophotometric tNOX Assay. NADH oxidase activity was determined as the disappearance of NADH measured at 340 nm with 430 nm as reference using an SLM Aminco (Lake Forest, Calif.) DW-2000 spectrophotometer in the dual wavelength mode of operation or a Hitachi (Tokyo, Japan) U3210 spectrophotometer at 340 nm with continuous recording over 5 or 10 min intervals once steady-state rates were obtained. […] To determine capsaicin inhibition, capsaicin in DMSO was added to a final concentration of 1 μM (0.1% DMSO) and the rate of NADH oxidation determined over 10 min. […]
(§2) NADH oxidase activity can also be measured using an Hitachi (Tokyo, Japan) U3210 spectrophotometer over 5 min intervals at 37° C. The activity was determined as the disappearance of NADH measured at 340 nm. […]

[4] = tested on: NADH oxidase of normal sera; test: NADH oxidase (NOX) activity of pooled sera of normal volunteers; format: biochemical, human
Procedure: as §1
(§3) Spectrophotometric tNOX Assay. NADH oxidase activity was determined as the disappearance of NADH measured at 340 nm with 430 nm as reference using an SLM Aminco (Lake Forest, Calif.) DW-2000 spectrophotometer in the dual wavelength mode of operation or a Hitachi (Tokyo, Japan) U3210 spectrophotometer at 340 nm with continuous recording over 5 or 10 min intervals once steady-state rates were obtained. The reaction mixture contained 50 mM Tris-Mes buffer (pH 7.0), 2 mM KCN to inhibit any potential mitochondrial oxidase activity, and 150 μM NADH in a total volume of 2.5 ml. Assay was at 37° C. with constant stirring. With purified fractions, 1 μM reduced glutathione was added to reduce the protein in the presence of substrate and human serum albumin, 0.1 mg/ml, as a protein source of thiols. After 10 min, 0.03% hydrogenperoxide was added (or oxidized glutathione) to reoxidize the protein under renaturing conditions and in the presence of substrate to start the reaction. A millimolar extinction coefficient of 6.22 was used to determine NADH disappearance. To determine capsaicin inhibition, capsaicin in DMSO was added to a final concentration of 1 μM (0.1% DMSO) and the rate of NADH oxidation determined over 10 min. Capsaicin at a final concentration of 100 μM (0.2% DMSO) was then added and the assay was continued for an additional 10 min.
as §2

[5] = tested on: tNOX; test: Immunoprecipitation of tNOX with MAB 12.1, supernatant activity assayed; format: biochemical, human; details: Preimmune
Procedure: Spectrophotometric tNOX Assay. NADH oxidase activity was determined as the disappearance of NADH measured at 340 nm with 430 nm as reference using an SLM Aminco (Lake Forest, Calif.) DW-2000 spectrophotometer in the dual wavelength mode of operation or a Hitachi (Tokyo, Japan) U3210 spectrophotometer at 340 nm with continuous recording over 5 or 10 min intervals once steady-state rates were obtained. The reaction mixture contained 50 mM Tris-Mes buffer (pH 7.0), 2 mM KCN to inhibit any potential mitochondrial oxidase activity, and 150 μM NADH in a total volume of 2.5 ml. Assay was at 37° C. with constant stirring. With purified fractions, 1 μM reduced glutathione was added to reduce the protein in the presence of substrate and human serum albumin, 0.1 mg/ml, as a protein source of thiols. After 10 min, 0.03% hydrogenperoxide was added (or oxidized glutathione) to reoxidize the protein under renaturing conditions and in the presence of substrate to start the reaction. A millimolar extinction coefficient of 6.22 was used to determine NADH disappearance. To determine capsaicin inhibition, capsaicin in DMSO was added to a final concentration of 1 μM (0.1% DMSO) and the rate of NADH oxidation determined over 10 min. Capsaicin at a final concentration of 100 μM (0.2% DMSO) was then added and the assay was continued for an additional 10 min. Immunoprecipitation. […]

[6] = tested on: tTIP; test: tTIP activity of sera of cancer patients, dithio-dipyridyl substrate; format: biochemical, human; details: Breast CA sera, without MAB 12.1
Text: An alternative assay procedure is the use of a dithio-dipyridyl substrate as described in Morré et al. (1999) Mol. Cell. Biochem. 207:7-13.

[7] = tested on: NADH oxidase of HeLa plasma membranes; test: NADH oxidase activity of HeLa S plasma membranes; format: biochemical, human; details: 37° C.
Procedure: as §3

[8] = cells incubated in 0.1 M sodium acetate, pH 5, 2 h
[9] = cells incubated in PBS, pH 7, 2 h

## O=C(O)c1ccc(SSc2ccc(C(=O)O)cn2)nc1 [DTNA, 6,6′-dithionicotinic acid]
[1]
  Km: 1500 µM
[1]; estimated
  VMAX: 1.5 nmoles/min/mg protein

## Cc1ccc(S(=O)(=O)NC(=O)Nc2ccc(Cl)cc2)cc1 [LY181984]
[2]
  ability of HeLa plasma membrane vesicles to oxidize NADH (in words): partially inhibited

## COc1cc(CNC(=O)CCCC/C=C/C(C)C)ccc1O [capsaicin, 8-methyl-N-vanillyl-6-noneamide]
[3]; 1 μM capsaicin
  NOX activity of sera, +1 μM Cap: 1.0 ± 0.13
[3]; capsaicin (concentration not given)
  NOX activity of sera, + μM Cap: 1.0 ± 0.17
[4]; capsaicin 1 to 100 μM
  NADH oxidation by pooled sera from normal patients (in words): not inhibited
[4]; normal sera, no MAB, 1 μM capsaicin
  NOX activity of sera, +1 μM Cap: 0.7 ± 0.14
[4]; normal sera, no MAB, capsaicin (concentration not given)
  NOX activity of sera, + μM Cap: 0.7 ± 0.16
[5]; 1 μM capsaicin
  Supernatant activity, 1 μM capsaicin: 0.6 ± 0.4 nmoles/min/100 μl serum
[5]; 100 μM capsaicin
  Supernatant activity, 100 μM capsaicin: 0.5 nmoles/min/100 μl serum
[6]
  Capsaicin inhibition: −0.6
[7]; [8]
  NADH oxidase activity, 1 μM capsaicin: 0.2 ± 0.01 nmoles/min/mg plasma membrane protein
  NADH oxidase activity, 100 μM capsaicin: 0.15 ± 0.02 nmoles/min/mg plasma membrane protein
[7]; [9]
  NADH oxidase activity, 1 μM capsaicin: 0.2 ± 0.02 nmoles/min/mg plasma membrane protein
  NADH oxidase activity, 100 μM capsaicin: 0.2 ± 0.02 nmoles/min/mg plasma membrane protein
[2]
  ability of HeLa plasma membrane vesicles to oxidize NADH (in words): partially inhibited
